Laboratory results taken from patent publication US6706663B2, “Herbicidal 3-heterocyclic substituted benzisothiazole and benzisoxazole compounds” (Wyeth, priority 2000, dated 2004).

How the values were obtained:
[1] = test system: ABUTH (Abutilon theophrasti); experiment: Preemergence herbicidal evaluation; assay type: in vivo, Medic.; settings: preemergence, rated 4-5 weeks after treatment
[2] = test system: IPOHE (Ipomoea hederacea); experiment: Preemergence herbicidal evaluation; assay type: in vivo, (L.) Jacq.; settings: preemergence, rated 4-5 weeks after treatment
[3] = test system: SETVI (Setaria viridis); experiment: Preemergence herbicidal evaluation; assay type: in vivo, (L.) Beau; settings: preemergence, rated 4-5 weeks after treatment
Outline: (§1)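 Seeds planted in potting soil cups and sprayed preemergence with aqueous acetone compound solution. Greenhouse-grown; rated 4–5 weeks after treatment on a 0-9 visual scale (stand, vigor, malformation, size, chlorosis, appearance) versus control.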

[4] = test system: ECHCG (Echinochloa crus-galli); experiment: Preemergence herbicidal evaluation; assay type: in vivo, (L.) Beau; settings: preemergence, rated 4-5 weeks after treatment
Outline: as §1

[5] = test system: TRZAWR (Wheat, Winter, cv Riband); experiment: Preemergence herbicidal evaluation; assay type: in vivo, Triticum aestivum; settings: preemergence, rated 4-5 weeks after treatment
Outline: as §1

[6] = test system: ORYSAT (Rice, Tebonnet); experiment: Postemergence herbicidal evaluation; assay type: in vivo, Oryza sativa, (L.) Tebonnet
Outline: (§2)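 Seedlings grown about two weeks in flats, sprayed, then kept under standard greenhouse care. Rated visually 4–5 weeks after treatment on a 0–9 scale (stand, vigour, malformation, size, chlorosis, overall appearance) relative to untreated control; repeat tests averaged.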

[7] = test system: CYPIR (Cyperus iria); experiment: Flooded paddy, preemergence weed control; assay type: in vivo; settings: rated 3-4 weeks after treatment, 0-9 rating scale
Outline: (§3)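 Under paddy conditions, seeds or vegetative propagules go into the top 0.5 cm of silt loam; the soil is then flooded to 1.5–3 cm and kept so. Treated pots stay in a greenhouse; response is rated 0-9 visually versus control.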

[8] = test system: AMBEL (Ambrosia artemisifolia); experiment: Postemergence herbicidal evaluation; assay type: in vivo, L.
Outline: as §2

[9] = test system: CHEAL (Chenopodium album); experiment: Postemergence herbicidal evaluation; assay type: in vivo, L.
Outline: as §2

[10] = test system: CASOB (Cassia obtusifolia); experiment: Postemergence herbicidal evaluation; assay type: in vivo, L.
Outline: as §2

[11] = test system: GLXMAW (Soybean, Williams); experiment: Preemergence herbicidal evaluation; assay type: in vivo, Glycine max, (L.) Merr. cv Williams; settings: preemergence, rated 4-5 weeks after treatment
[12] = test system: MOOVA (Monochoria vaginalis); experiment: Flooded paddy, preemergence weed control; assay type: in vivo, Presl.; settings: rated 3-4 weeks after treatment, 0-9 rating scale
Outline: as §3

[13] = test system: IPOHE (Ipomoea hederacea); experiment: Postemergence herbicidal evaluation; assay type: in vivo, (L.) Jacq.
Outline: as §2

[14] = test system: ABUTH (Abutilon theophrasti); experiment: Postemergence herbicidal evaluation; assay type: in vivo, Medic.
Outline: as §2

[15] = test system: ORYSAT (Rice, Tebonnet); experiment: Flooded paddy, post-transplant rice tolerance; assay type: in vivo, Oryza sativa, (L.) Tebonnet; settings: flooded paddy, post-transplant rice, rated 3-4 weeks after treatment, 0-9 rating scale
Outline: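 Two ten-day-old Tebonnet rice seedlings transplanted into silt loam, then flooded with water held at 1.5–3 cm above soil; herbicide applied post-transplant. Plants kept in greenhouse and rated visually 0–9 versus untreated control for stand, vigor, malformation, size and chlorosis.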

[16] = test system: ZEAMX (Corn, Field); experiment: Preemergence herbicidal evaluation; assay type: in vivo, Zea mays, L.; settings: preemergence, rated 4-5 weeks after treatment
[17] = test system: GLXMAW (Soybean, Williams); experiment: Postemergence herbicidal evaluation; assay type: in vivo, Glycine max, (L.) Merr. cv Williams
Outline: as §2

[18] = test system: AMBEL (Ambrosia artemisifolia); experiment: Preemergence herbicidal evaluation; assay type: in vivo, L.; settings: preemergence, rated 4-5 weeks after treatment
Outline: as §1

[19] = test system: CHEAL (Chenopodium album); experiment: Preemergence herbicidal evaluation; assay type: in vivo, L.; settings: preemergence, rated 4-5 weeks after treatment
Outline: as §1

[20] = test system: CASOB (Cassia obtusifolia); experiment: Preemergence herbicidal evaluation; assay type: in vivo, L.; settings: preemergence, rated 4-5 weeks after treatment
Outline: as §1

SMILES: Cn1ccnc1-c1nsc2ccc(-n3c(=O)cc(C(F)(F)F)n(C)c3=O)cc12 [Compound 5, 1-methyl-3-[3-(1-methylimidazol-2-yl)-1,2-benzisothiazol-5-yl]-6-(trifluoromethyl)uracil]
- ABUTH preemergence herbicidal rating ([1]; Rate 0.0620 kg/ha): 7.0
- ABUTH preemergence herbicidal rating ([1]; Rate 0.1250 kg/ha): 9.0
- ABUTH preemergence herbicidal rating ([1]; Rate 0.2500 kg/ha): 9.0
- IPOHE preemergence herbicidal rating ([2]; Rate 0.0620 kg/ha): 4.0
- IPOHE preemergence herbicidal rating ([2]; Rate 0.1250 kg/ha): 9.0
- IPOHE preemergence herbicidal rating ([2]; Rate 0.2500 kg/ha): 9.0
- SETVI preemergence herbicidal rating ([3]; Rate 0.0620 kg/ha): 9.0
- SETVI preemergence herbicidal rating ([3]; Rate 0.1250 kg/ha): 9.0
- SETVI preemergence herbicidal rating ([3]; Rate 0.2500 kg/ha): 9.0
- ECHCG preemergence herbicidal rating ([4]; Rate 0.0620 kg/ha): 2.5
- ECHCG preemergence herbicidal rating ([4]; Rate 0.1250 kg/ha): 8.0
- ECHCG preemergence herbicidal rating ([4]; Rate 0.2500 kg/ha): 9.0
- TRZAWR preemergence herbicidal rating ([5]; Rate 0.0620 kg/ha): 5.0
- TRZAWR preemergence herbicidal rating ([5]; Rate 0.1250 kg/ha): 7.0
- TRZAWR preemergence herbicidal rating ([5]; Rate 0.2500 kg/ha): 8.0
- Postemergence herbicidal rating, ORYSAT ([6]; rate 0.0320 kg/ha): 2.0
- Postemergence herbicidal rating, ORYSAT ([6]; rate 0.0620 kg/ha): 3.0
- herbicidal rating, CYPIR ([7]; rate 0.0320 kg/ha): 0.0
- herbicidal rating, CYPIR ([7]; rate 0.1250 kg/ha): 7.0
- Postemergence herbicidal rating, AMBEL ([8]; rate 0.0320 kg/ha): 2.0
- Postemergence herbicidal rating, AMBEL ([8]; rate 0.0620 kg/ha): 9.0
- Postemergence herbicidal rating, CHEAL ([9]; rate 0.0320 kg/ha): 0.0
- Postemergence herbicidal rating, CHEAL ([9]; rate 0.0620 kg/ha): 2.0
- Postemergence herbicidal rating, CASOB ([10]; rate 0.0320 kg/ha): 0.0
- Postemergence herbicidal rating, CASOB ([10]; rate 0.0620 kg/ha): 2.0
- GLXMAW preemergence herbicidal rating ([11]; Rate 0.0620 kg/ha): 2.0
- GLXMAW preemergence herbicidal rating ([11]; Rate 0.1250 kg/ha): 3.5
- GLXMAW preemergence herbicidal rating ([11]; Rate 0.2500 kg/ha): 6.5
- herbicidal rating, MOOVA ([12]; rate 0.0320 kg/ha): 2.0
- herbicidal rating, MOOVA ([12]; rate 0.1250 kg/ha): 9.0
- Postemergence herbicidal rating, IPOHE ([13]; rate 0.0320 kg/ha): 9.0
- Postemergence herbicidal rating, IPOHE ([13]; rate 0.0620 kg/ha): 9.0
- Postemergence herbicidal rating, ABUTH ([14]; rate 0.0320 kg/ha): 9.0
- Postemergence herbicidal rating, ABUTH ([14]; rate 0.0620 kg/ha): 9.0
- herbicidal rating, ORYSAT (rice tolerance) ([15]; rate 0.0320 kg/ha): 2.0
- herbicidal rating, ORYSAT (rice tolerance) ([15]; rate 0.1250 kg/ha): 3.0
- ZEAMX preemergence herbicidal rating ([16]; Rate 0.0620 kg/ha): 4.0
- ZEAMX preemergence herbicidal rating ([16]; Rate 0.1250 kg/ha): 6.5
- ZEAMX preemergence herbicidal rating ([16]; Rate 0.2500 kg/ha): 7.0
- Postemergence herbicidal rating, GLXMAW ([17]; rate 0.0320 kg/ha): 5.5
- Postemergence herbicidal rating, GLXMAW ([17]; rate 0.0620 kg/ha): 6.0
- AMBEL preemergence herbicidal rating ([18]; Rate 0.0620 kg/ha): 8.5
- AMBEL preemergence herbicidal rating ([18]; Rate 0.1250 kg/ha): 9.0
- AMBEL preemergence herbicidal rating ([18]; Rate 0.2500 kg/ha): 9.0
- CHEAL preemergence herbicidal rating ([19]; Rate 0.0620 kg/ha): 9.0
- CHEAL preemergence herbicidal rating ([19]; Rate 0.1250 kg/ha): 9.0
- CHEAL preemergence herbicidal rating ([19]; Rate 0.2500 kg/ha): 9.0
- CASOB preemergence herbicidal rating ([20]; Rate 0.0620 kg/ha): 0.0
- CASOB preemergence herbicidal rating ([20]; Rate 0.1250 kg/ha): 1.0
- CASOB preemergence herbicidal rating ([20]; Rate 0.2500 kg/ha): 5.5
